What was measured:
Format in all cases: in vivo
[1] = system: Corn Earworm (CEW) (Helicoverpa zea); assay: Bioassay on corn earworm (CEW), 128-well diet tray assay; settings: Corn earworm, 50 μg/cm^2; for pest or weed control at 50 µg/cm2, 50 µg/cm2: Helicoverpa zea, read-out: % Mortality CEW 50 μg/cm^2
Method in brief: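 Second-instar Helicoverpa zea larvae (one to five per well) placed on artificial diet treated with 50 μg/cm^2 compound in 90:10 acetone-water, dried, eight wells per compound. Held at 25 °C, 14:10 light-dark, five to seven days; percent mortality averaged over wells.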

[2] = system: Beet Armyworm (BAW) (Spodoptera exigua); assay: Bioassay on beet armyworm (BAW), 128-well diet tray assay; settings: Beet armyworm, 50 μg/cm^2; for pest or weed control at 50 µg/cm2, 50 µg/cm2: Spodoptera exigua, read-out: % Mortality BAW 50 μg/cm^2
Method in brief: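 Second-instar Spodoptera exigua larvae, one to five per well, on artificial diet treated with 50 μg/cm^2 compound in 90:10 acetone-water and dried, eight wells per compound. Held at 25 °C, 14:10 light-dark for five to seven days; percent mortality averaged over wells.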

[3] = system: Green Peach Aphid (GPA) (Myzus persicae); assay: Bioassay on green peach aphid (GPA), foliar spray on cabbage seedlings; settings: 72 h, read-out: % Mortality GPA 200 ppm
Description: Bioassays on Green Peach Aphid (“GPA”) (Myzus persicae)
Certain molecules disclosed in this document were tested against GPA using procedures described in the following example. In the reporting of the results, the “GPA Rating Table” was used (See Table Section).
Cabbage seedlings grown in 3-inch pots, with 2-3 small (3-5 cm) true leaves, were used as test substrate. The seedlings were infested with 20-50 GPA (wingless adult and nymph stages) one day prior to chemical application. Four pots with individual seedlings were used for each treatment. Test compounds (2 mg) were dissolved in 2 mL of acetone/methanol (1:1) solvent, forming stock solutions of 1000 ppm test compound. The stock solutions were diluted 5× with 0.025% Tween 20 in H2O to obtain the solution at 200 ppm test compound. A hand-held aspirator-type sprayer was used for spraying a solution to both sides of […] leaves until runoff. Reference plants (solvent check) were sprayed with the diluent only containing 20% by volume of acetone/methanol (1:1) solvent. Treated plants were held in a holding room for three days at approximately 25° C. and ambient relative humidity (RH) prior to grading. Evaluation was conducted by counting the number of live aphids per plant under a microscope. Percent Control was measured by using Abbott's correction formula (W. S. Abbott, “A Method of Computing the Effectiveness of an Insecticide” J. Econ. Entomol. 18 (1925), pp. 265-267) as follows. Corrected%Control=100*(X−Y)/X • where • X=No. of live aphids on solvent check plants and • Y=No. of live aphids on treated plants
The results are indicated in the table entitled “Table 5: Biological Results” (See Table Section).

Compound: CC(C)Cc1ccccc1N1CCCS/C1=N\N=C\c1ccc(-c2ncn(-c3ccc(OC(F)(F)F)cc3)n2)cc1 [Compound 193C]
- pest or weed control at 50 µg/cm2, 50 µg/cm2 [1]: 50 to 100%
- pest or weed control at 50 µg/cm2, 50 µg/cm2 [2]: 50 to 100%
- pest or weed control at 200 ppm [3]: 0 to 80%

Compound: Cc1ccccc1N1/C(=N/N=C/c2ccc(-c3ncn(-c4ccc(OC(F)(F)F)cc4)n3)cc2)SCC1C (stereo not drawn) [Compound 154C]
- pest or weed control at 50 µg/cm2, 50 µg/cm2 [1]: 50 to 100%
- pest or weed control at 50 µg/cm2, 50 µg/cm2 [2]: 50 to 100%
- pest or weed control at 200 ppm [3]: 0 to 80%

Compound: Cc1cccc(C)c1/N=C(/N/N=C/c1ccc(-c2ncn(-c3ccc(OC(F)(F)F)cc3)n2)cc1)SCc1cc2c(C(F)(F)F)nn(C)c2s1 [Compound 19C]
- pest or weed control at 50 µg/cm2, 50 µg/cm2 [1]: 50 to 100%
- pest or weed control at 50 µg/cm2, 50 µg/cm2 [2]: 50 to 100%
- pest or weed control at 200 ppm [3]: 0 to 80%

Compound: Cc1cc(Br)cc(C)c1N1CCCS/C1=N\N=C\c1ccc(-c2ncn(-c3ccc(OC(F)(F)F)cc3)n2)cc1 [Compound 203C]
- pest or weed control at 50 µg/cm2, 50 µg/cm2 [1]: 50 to 100%
- pest or weed control at 50 µg/cm2, 50 µg/cm2 [2]: 50 to 100%
- pest or weed control at 200 ppm [3]: 0 to 80%

Compound: Cc1cccc(C)c1/N=C(/N/N=C/c1ccc(-c2ncn(-c3ccc(OC(F)(F)F)cc3)n2)cc1)SC/C=C/Br [Compound 4C]
- pest or weed control at 50 µg/cm2, 50 µg/cm2 [1]: 50 to 100%
- pest or weed control at 50 µg/cm2, 50 µg/cm2 [2]: 50 to 100%
- pest or weed control at 200 ppm [3]: 0 to 80%

Compound: FC(F)(F)Oc1ccc(-n2cnc(-c3ccc(/C=N/N=C4\SCCCN4c4ccccc4-c4ccccc4)cc3)n2)cc1 [Compound 194C]
- pest or weed control at 50 µg/cm2, 50 µg/cm2 [1]: 50 to 100%
- pest or weed control at 50 µg/cm2, 50 µg/cm2 [2]: 50 to 100%
- pest or weed control at 200 ppm [3]: 0 to 80%

Compound: CCc1cccc(C)c1N1C(=O)CS/C1=N\N=C\c1ccc(-c2ncn(-c3ccc(OC(F)(F)F)cc3)n2)cc1 [Compound 111C]
- pest or weed control at 50 µg/cm2, 50 µg/cm2 [1]: 50 to 100%
- pest or weed control at 50 µg/cm2, 50 µg/cm2 [2]: 50 to 100%
- pest or weed control at 200 ppm [3]: 0 to 80%

Compound: COc1cc(C)c(/N=C(/N/N=C/c2ccc(-c3ncn(-c4ccc(OC(F)(F)F)cc4)n3)cc2)SCC(=O)O)c(C)c1.[Na+] [Compound 68C, 2-(((Z)-((4-methoxy-2,6-dimethylphenyl)imino)((E)-2-(4-(1-(4-(trifluoromethoxy)phenyl)-1H-1,2,4-triazol-3-yl)benzylidene)hydrazinyl)methyl)-thio)acetic acid sodium salt]
- % Mortality CEW 50 μg/cm^2 [1]: A (50-100)
- % Mortality BAW 50 μg/cm^2 [2]: A (50-100)
- pest or weed control at 200 ppm [3]: 0 to 80%

Compound: Cc1cccc(C)c1-n1c(-c2ccc(C(F)(F)F)cc2)cs/c1=N\N=C\c1ccc(-c2ncn(-c3ccc(OC(F)(F)F)cc3)n2)cc1 [Compound 79C]
- pest or weed control at 50 µg/cm2, 50 µg/cm2 [1]: 50 to 100%
- pest or weed control at 50 µg/cm2, 50 µg/cm2 [2]: 50 to 100%
- pest or weed control at 200 ppm [3]: 0 to 80%

Compound: Cc1cccc(C)c1/N=C(/N/N=C/c1ccc(-c2ncn(-c3ccc(OC(F)(F)F)cc3)n2)cc1)SCc1ccc(S(=O)(=O)Nc2ccc(F)cc2)cc1 [Compound 18C]
- pest or weed control at 50 µg/cm2, 50 µg/cm2 [1]: 50 to 100%
- pest or weed control at 50 µg/cm2, 50 µg/cm2 [2]: 50 to 100%
- pest or weed control at 200 ppm [3]: 0 to 80%

Compound: Cc1cccc(C)c1/N=C(/N/N=C/c1ccc(-c2ncn(-c3ccc(OC(F)(F)F)cc3)n2)cc1)SCc1c(F)cccc1F [Compound 5C]
- pest or weed control at 50 µg/cm2, 50 µg/cm2 [1]: 50 to 100%
- pest or weed control at 50 µg/cm2, 50 µg/cm2 [2]: 50 to 100%
- pest or weed control at 200 ppm [3]: 0 to 80%

Compound: Cc1cccc(C)c1/N=C(/N/N=C/c1ccc(-c2ncn(-c3ccc(OC(F)(F)F)cc3)n2)cc1)SCc1ccc(S(N)(=O)=O)cc1 [Compound 13C]
- pest or weed control at 50 µg/cm2, 50 µg/cm2 [1]: 50 to 100%
- pest or weed control at 50 µg/cm2, 50 µg/cm2 [2]: 50 to 100%
- pest or weed control at 200 ppm [3]: 0 to 80%

Compound: O=C1CS/C(=N\N=C\c2ccc(-c3ncn(-c4ccc(OC(F)(F)F)cc4)n3)cc2)N1c1c(F)cccc1Cl [Compound 95C]
- pest or weed control at 50 µg/cm2, 50 µg/cm2 [1]: 50 to 100%
- pest or weed control at 50 µg/cm2, 50 µg/cm2 [2]: 50 to 100%
- pest or weed control at 200 ppm [3]: 0 to 80%

Compound: Cc1cccc(C)c1/N=C(/N/N=C/c1ccc(-c2ncn(-c3ccc(OC(F)(F)F)cc3)n2)cc1)SCc1ocnc1-c1ccccc1 [Compound 15C]
- pest or weed control at 50 µg/cm2, 50 µg/cm2 [1]: 50 to 100%
- pest or weed control at 50 µg/cm2, 50 µg/cm2 [2]: 50 to 100%
- pest or weed control at 200 ppm [3]: 80 to 100%

Compound: COc1cc(C)c(/N=C(/N/N=C/c2ccc(-c3ncn(-c4ccc(OC(F)(F)F)cc4)n3)cc2)SCOC(=O)C2CCCC2)c(C)c1 [Compound 43C]
- pest or weed control at 50 µg/cm2, 50 µg/cm2 [1]: 50 to 100%
- pest or weed control at 50 µg/cm2, 50 µg/cm2 [2]: 50 to 100%
- pest or weed control at 200 ppm [3]: 0 to 80%

Compound: Cc1cccc(C)c1/N=C(/N/N=C/c1ccc(-c2ncn(-c3ccc(OC(F)(F)C(F)(F)F)cc3)n2)cc1)SCC(=O)O [Compound 49C]
- pest or weed control at 50 µg/cm2, 50 µg/cm2 [1]: 50 to 100%
- pest or weed control at 50 µg/cm2, 50 µg/cm2 [2]: 50 to 100%
- pest or weed control at 200 ppm [3]: 0 to 80%

Source: patent publication US9018388B2, “Pesticidal compositions and processes related thereto” (Dow AgroSciences LLC, priority 2012, dated 2015)
